{
  "source": "ChEMBL document CHEMBL4184266",
  "about": "“Bacicyclin, a new antibacterial cyclic hexapeptide from Bacillus sp. strain BC028 isolated from Mytilus edulis” (Bioorg Med Chem Lett, 2018)",
  "key": {"[1]": {"system": "Enterococcus faecalis", "assay": "Antibacterial activity against Enterococcus faecalis JH212 assessed as inhibition of bacterial growth incubated for 18 hrs by […]", "format": "functional", "details": "JH212, 18 h"}, "[2]": {"system": "Staphylococcus aureus", "assay": "Antibacterial activity against Staphylococcus aureus NCTC 8325 assessed as inhibition of bacterial growth incubated for 18 hrs by […]", "format": "functional", "details": "NCTC 8325, 18 h"}, "[3]": {"assay": "Cytotoxicity against mouse J774.1 cells incubated for 24 hrs and measured 48 and 72 hrs post dye addition by Alamar blue dye based assay", "format": "cell-based"}, "[4]": {"system": "Pseudomonas aeruginosa", "assay": "Antibacterial activity against Pseudomonas aeruginosa isolate number 3 assessed as inhibition of bacterial growth incubated for 18 hrs by […]", "format": "functional, organism-based"}, "[5]": {"system": "Staphylococcus epidermidis", "assay": "Antibacterial activity against Staphylococcus epidermidis RP62A assessed as inhibition of bacterial growth incubated for 18 hrs by […]", "format": "functional, organism-based"}, "[6]": {"system": "Escherichia coli", "assay": "Antibacterial activity against Escherichia coli 536 assessed as inhibition of bacterial growth incubated for 18 hrs by […]", "format": "functional, organism-based"}, "[7]": {"system": "Enterococcus faecium", "assay": "Antibacterial activity against Enterococcus faecium 6413 assessed as inhibition of bacterial growth incubated for 18 hrs by […]", "format": "functional, organism-based"}},
  "note": "The source made the active and inactive calls. The calls are words filed in the database; no cut-off is given here.",
  "data": [
    {"compound": "CC[C@H](C)[C@@H]1NC(=O)[C@H](C(C)C)NC(=O)[C@H](CC(C)C)NC(=O)CNC(=O)[C@@H](Cc2ccccc2)NC(=O)[C@@H](C)NC1=O", "note": "[listing 1 of 2 here]", "values": [
      {"measurement": "MIC", "setting": "[1]", "result": 8, "unit": "µM"},
      {"measurement": "MIC", "setting": "[2]", "result": 12, "unit": "µM"}
    ]},
    {"compound": "CN[C@@H]1[C@H](O[C@H]2[C@H](O[C@H]3[C@H](O)[C@@H](O)[C@H](N=C(N)N)[C@@H](O)[C@@H]3N=C(N)N)O[C@@H](C)[C@]2(O)C=O)O[C@@H](CO)[C@H](O)[C@H]1O", "note": "[STREPTOMYCIN]", "values": [
      {"measurement": "MIC", "setting": "[1]", "result": 5.24, "unit": "µM"},
      {"measurement": "MIC", "setting": "[2]", "result": 2.09, "unit": "µM"}
    ]},
    {"compound": "CC[C@H](C)[C@@H]1NC(=O)[C@H](C(C)C)NC(=O)[C@H](CC(C)C)NC(=O)CNC(=O)[C@@H](Cc2ccccc2)NC(=O)[C@@H](C)NC1=O", "note": "[listing 2 of 2 here]", "values": [
      {"measurement": "CC50 at 24 h", "setting": "[3]", "result": "> 200", "unit": "µM"}
    ]},
    {"compound": "CC[C@H](C)[C@@H]1NC(=O)[C@@H](C)NC(=O)[C@@H](Cc2ccccc2)NC(=O)CNC(=O)[C@H](CC(C)C)NC(=O)[C@H](C(C)C)NC1=O", "values": [
      {"measurement": "growth inhibition (GI)", "setting": "[4]", "result": "inactive"},
      {"measurement": "growth inhibition (GI)", "setting": "[5]", "result": "inactive"},
      {"measurement": "growth inhibition (GI)", "setting": "[6]", "result": "inactive"},
      {"measurement": "growth inhibition (GI)", "setting": "[7]", "result": "inactive"}
    ]}
  ]
}
